Measurements as given in article PMC6272893, “NO-Releasing Enmein-Type Diterpenoid Derivatives with Selective Antiproliferative Activity and Effects on Apoptosis-Related Proteins” (Molecules, 2016).

Columns and labels:
CaEs-17 cells = experiment: MTT antiproliferative assay, CaEs-17; format: cell-based, human
Protocol: [The source words this procedure for another cell line and reports this cell line under the same test.] (§1) Cytotoxicity assay in vitro was employed by the MTT assay following the methodology described previously, which was performed in flat-bottomed 96-well plates. In short, exponentially growing MGC-803 cells at the log phase were added to each well at a density of 5 × 10^3 per well, then treated with serial dilutions of the compounds in three replicates at various concentrations (0.039–40 µg/mL). After 72 h, 20 µL of MTT solution (5 mg/mL) per well was added to each cultured medium. Then, DMSO was added to each well (150 µL/well). After 10 min at room temperature, the absorbance (OD) was read on a microplate reader at the wavelength of 490 nm (BIO-RAD Instruments Inc. 550, Hercules, CA, USA). In these experiments, taxol was used as the positive reference with the concentration of 10 µg/mL.

K562 cells = experiment: MTT antiproliferative assay, K562; format: cell-based, human
Protocol: [The source words this procedure for another cell line and reports this cell line under the same test.] as §1

L-02 normal liver cells = experiment: MTT antiproliferative assay, L-02; format: cell-based
Protocol: [The source words this procedure for another cell line and reports this cell line under the same test.] as §1

Bel-7402 cells [1] = experiment: Annexin V-FITC/PI apoptosis assay; format: cell-based, human; settings: 24 h, control 8.27%
Protocol: The Bel-7402 cells were seeded in 6-well plates to grow overnight, and then treated with or without 10f at indicated concentrations in triplicate for 24 h. Cells were then washed twice in PBS and resuspended in annexin V binding buffer. Annexin V-FITC was then added and the mixture was incubated for 15 min under dark conditions at 25 °C. PI was added just prior to acquisition. Apoptosis was analyzed using annexin V and PI double-staining by flow cytometry according to the manufacturer’s instructions in order to detect apoptotic cells.
Figure 5 Apoptosis in Bel-7402 cells by treatment with 10f: Bel-7402 cells were incubated with different concentrations of 10f for 24 h and the cells were stained with annexin V-FITC and PI, followed by flow cytometry analysis. TEXT PRINTED IN THE PICTURE: Control: 2.67%; 2.37%; 89.06%; 5.90% | no label printed: 2.07% (1.0 μM); 4.15% (1.0 μM); 74.53% (1.0 μM); 19.26% (1.0 μM); 5.69% (1.5 μM); 15.20% (1.5 μM); 55.99% (1.5 μM); 23.12% (1.5 μM); 3.33% (2.0 μM); 26.65% (2.0 μM); 37.87% (2.0 μM); 32.15% (2.0 μM) DOUBTS OF THE COPYIST ABOUT THIS PICTURE: The picture prints no compound label for the treated plots, only the concentrations 1.0 μM, 1.5 μM and 2.0 μM, so the substance is left empty. / The picture prints no measure or quadrant name for the percentages. Each plot's values are given in the order upper left, upper right, lower left, lower right.

Bel-7402 cells [2] = experiment: Mitochondrial membrane potential assay (JC-1); format: cell-based, human; settings: 48 h, control 3.28%
Protocol: […] The percentage of cells with healthy or collapsed mitochondrial membrane potentials was monitored by flow cytometry analysis.
Figure 6 Effect of 10f on the mitochondrial membrane potentials of Bel-7402 cells: Bel-7402 cells were incubated with the indicated concentrations of 10f for 48 h prior to staining with JC-1. […] In each plot the first value is in the upper right quadrant and the second in the lower right quadrant.

Bel-7402 cells [3] = experiment: MTT antiproliferative assay, Bel-7402; format: cell-based, human
Protocol: [The source words this procedure for another cell line and reports this cell line under the same test.] as §1

MGC-803 cells = experiment: MTT antiproliferative assay, MGC-803; format: cell-based, human
Protocol: as §1

[4] = test system: apoptosis-related proteins in Bel-7402 cells; experiment: Western blot of apoptosis-related proteins; format: cell-based, human; settings: 10f 1.0, 1.5 and 2.0 μM, 48 h, concentration-dependent
Protocol: Bel-7402 cells were incubated in triplicate with different doses (1.0, 1.5 and 2.0 μM) of 10f for 48 h. After the protein concentrations were determined, individual cell lysates were separated by sodium dodecyl sulfate polyacrylamide gel electrophoresis (10% gel, SDS-PAGE) and transferred onto nitrocellulose membranes. After being blocked with 5% fat-free milk, the target proteins in the membranes were probed with monoclonal anti-Bax (KGA714), anti-Bcl2 (KGA715), anti-caspase 3 (KGA717), anti-caspase 9 (KGA720), anti-cyto C (KGA723), and anti-β-actin antibodies (KGA731, KeyGEN Biotech, Nanjing, China), respectively. The relative levels of each signaling event to control β-actin were determined by densimetric scanning.
Figure 7 Western blotting of 10f on the expression of apoptosis-related proteins in Bel-7402 cells. 1: negative control; 2: 2.0 μM; 3: 1.5 μM; 4: 1.0 μM.

Bel-7402 cells [5] = experiment: Cell cycle study by PI flow cytometry; format: cell-based, human; settings: for G2 phase cells: control 20.72%; for cells at the S phase: control 34.65%
Protocol: Progression through the cell cycle was assessed by flow cytometry DNA determination with PI. Bel-7402 cells were plated in 6-well plates (5.0 × 10^3 cells/well) and incubated at 37 °C for 24 h. Exponentially growing cells were then incubated with tested compound at a certain concentration in triplicate. Untreated cells (control) or cells treated with the solvent (DMSO) of the compound were included. After 48 h treatment, cells were centrifuged and fixed in 70% ethanol at 4 °C overnight and subsequently resuspended in PBS containing 100 μL RNase A and 400 μL PI. Cellular DNA content, for cell cycle distribution analysis, was measured using a flow cytometer (FACS Calibur Becton-Dickinson, Franklin Lake, NJ, USA).
Figure 4 Influence of the cell cycle arrest of S phase by 10f in Bel-7402 cells: Bel-7402 cells were incubated with the indicated concentrations of 10f for 24 h and the cells were stained with propidium iodide (PI). Cellular DNA content, for cell cycle distribution analysis, was measured using a flow cytometer. The diagrams show the distribution of the cells according to their DNA content. The inserts give the percentages of cells in different cell cycle phases. TEXT PRINTED IN THE PICTURE: Control group: G1: 44.64%; S: 34.65%; G2: 20.72% | no label printed: G1: 42.41% (1 μM); S: 40.27% (1 μM); G2: 17.32% (1 μM); G1: 43.10% (1.5 μM); S: 48.11% (1.5 μM); G2: 8.79% (1.5 μM); G1: 40.63% (2 μM); S: 53.34% (2 μM); G2: 6.02% (2 μM) DOUBTS OF THE COPYIST ABOUT THIS PICTURE: The picture prints no label for the treated substance, only the concentrations 1 μM, 1.5 μM and 2 μM, so the substance is left blank and the concentrations are given as conditions. / Control group is an untreated reference, not a substance. It is listed because the picture prints its values under that label.

For `C=C1C(=O)C23C(=O)OC4CCC(C)(C)C5C(=O)OCC45C2CCC1C3OC(=O)c1ccccc1C(=O)OCCCOc1no[n+]([O-])c1S(=O)(=O)c1ccccc1` (stereo not shown) [Compound 10f], the IC50 (CaEs-17 cells; Homo sapiens, CaEs17, MTT, 72 h, mean ± S.D. of three experiments) was 3770 ± 300 nM, the “fold stronger than 1, CaEs-17” value (CaEs-17 cells; IC50 compared with 1) was 1.9 fold and the “fold stronger than 9, CaEs-17” value (CaEs-17 cells; IC50 compared with 9) was 5.3 fold. The IC50 (K562 cells; Homo sapiens, K562, MTT, 72 h, mean ± S.D. of three experiments) was 1730 ± 40 nM, the “fold stronger than 1, K562” value (K562 cells; IC50 compared with 1) was 1.8 fold and the IC50 (L-02 normal liver cells; MTT, 72 h, mean ± S.D. of three experiments, read-out: antiproliferative activity IC50, L-02) was 29900 ± 1400 nM. For the same compound, the “SI (selectivity index)” value (L-02 normal liver cells; selectivity between tumor and normal liver cells) was 36.9, the “apoptotic cell rates (early and late)” value (Bel-7402 cells [1]; 10f 1.0 μM) was 23.41% and the “apoptotic cell rates (early and late)” value (Bel-7402 cells [1]; 10f 1.5 μM) was 38.32%. For the same compound, the “apoptotic cell rates (early and late)” value (Bel-7402 cells [1]; 10f 2.0 μM) was 58.80%, the “cells with collapsed mitochondrial membrane potentials” value (Bel-7402 cells [2]; 10f 0.5 μM) was 17.76% and the “cells with collapsed mitochondrial membrane potentials” value (Bel-7402 cells [2]; 10f 1.5 μM) was 33.44%. The “cells with collapsed mitochondrial membrane potentials” value (Bel-7402 cells [2]; 10f 2.0 μM) was 47.63%, the IC50 (Bel-7402 cells [3]; Homo sapiens, Bel-7402, MTT, 72 h, mean ± S.D. of three experiments) was 810 ± 60 nM and the “fold stronger than 1, Bel-7402” value (Bel-7402 cells [3]; IC50 compared with 1) was 8.2 fold. For the same compound, the “fold stronger than 9, Bel-7402” value (Bel-7402 cells [3]; IC50 compared with 9) was 18.7 fold, the IC50 (MGC-803 cells; Homo sapiens, MGC-803, MTT, 72 h, mean ± S.D. of three experiments) was 1180 ± 100 nM and the “fold stronger than 1, MGC-803” value (MGC-803 cells; IC50 compared with 1) was 3.8 fold. For the same compound, the “fold stronger than 9, MGC-803” value (MGC-803 cells; IC50 compared with 9) was 3.9 fold, the “anti-apoptotic Bcl-2 expression” value [4] was “downregulation” and the “expression of proapoptotic caspase-3, -8, -9, Bax, FAS, and cytochrome c” value [4] was “upregulation”. For the same compound, the G2 phase cells (Bel-7402 cells [5]; 10f 1.0 μM) was 17.32%, the “cells at the S phase” value (Bel-7402 cells [5]; 10f 1.0 μM) was 40.27% and the G2 phase cells (Bel-7402 cells [5]; 10f 1.5 μM) was 8.79%. For the same compound, the “cells at the S phase” value (Bel-7402 cells [5]; 10f 1.5 μM) was 48.11%, the G2 phase cells (Bel-7402 cells [5]; 10f 2.0 μM) was 6.02% and the “cells at the S phase” value (Bel-7402 cells [5]; 10f 2.0 μM) was 53.34%. The melting point was 151 to 154 °C.
